The results in this text go back to patent publication US20180009764A1, “METHOD FOR TREATING MACROPHAGE MIGRATION INHIBITORY FACTOR (MIF)-IMPLICATED DISEASES AND CONDITIONS WITH IODO PYRIMIDINE DERIVATIVES” (UNIVERSITY OF LOUISVILLE RESEARCH FOUNDATION, INC., priority 2009, published 2018).

SMILES strings stand for the structures. Some results are limits rather than exact numbers.

One series relates to Caco-2 monolayers. Put plainly: Caco-2 cell permeability and transport. The format is in vitro ADME. More on the design: Caco-2 Permeability Papp B-A / Caco-2 Permeability Papp A-B: unit not given here. The conditions noted are these: for Caco-2 Permeability Papp A-B: apical-to-basolateral. The procedure: (§1) Cell permeability and transport mechanisms in Caco-2 and MDR1-MDCK monolayers experiments were performed in triplicate in the apical-to-basolateral and basolateral-to-apical direction using […]® wells containing either Caco-2 or MDR1-MDCK monolayers. A modified Hanks buffer pH 7.4 was used in both reservoir and receiver wells with the addition of 1% BSA in the receiver side. Confluent monolayers were used and their integrity was verified using reference compounds (Atenolol as a low permeability reference compound and Propanolol as a high permeability reference compound). A sample in the basolateral and apical sides was taken after 2 hours and the concentration measured by LC/MS-MS.

A further series deals with MDR1-MDCK monolayers. The series can be described thus: MDR1-MDCK cell permeability and transport. The conditions noted are these: for Efflux: class in words. The format is in vitro ADME. The procedure: as §1
Series [1] can be described thus: Microsomal stability in human liver microsomes. It is filed as in vitro ADME. The note with it: both, human, microsomes, pH 7.4. The protocol:
Stability in human liver microsomes was tested over […] at 37° C. using pooled mixed gender human liver microsomes. Liver microsomes were prepared at 1.0 mg/ml of microsomal protein in a 100 mM potassium phosphate pH 7.4 buffer with 1 mM NADPH. The media was incubated at 37° C. with the compound in solution in DMSO. The concentration of the compound was followed by LC/MS-MS as a function of time. Samples were assayed at t=0, 30, 60 and 120 minutes. Testosterone was used as a positive control. The same experiment was performed with mouse liver microsomes instead of human liver microsomes.

A further series is described as follows: in vitro. The format is in vitro ADME. The note with it: human, plasma, Human Plasma Protein Binding % Bound. An excerpt: Plasma protein binding was ascertained using dialysis equilibrium methods known in the art.
The test system of the next series is Du 145. The series can be described thus: Inhibition of tumor cells proliferation (CellTiter Glo). The format is cell-based. The note with it: Homo sapiens, 72 hours. The procedure: Inhibition of the proliferation of tumor cells was investigated in vitro in several tumor cell lines. Cells of the desired tumor cell line were plated at 2×10^5 cells/ml in 96 well plates. Twice the indicated concentrations of the compounds of the invention were added to cells the following day in an equal volume of media. 72 hours later, cells were lysed and subjected to ATP determination using the CellTiter Glo-Luminescent Cell Viability Assay kit (Promega, Madison, Wis.). Experiments were done in triplicate. Results for the inhibition of cells proliferation are reported as IC50 (the concentration leading to a 50% inhibition of proliferation of the cell population) and are listed in Table 6. FIGS. 3 and 4 show bar graphs comparing the IC50s of specific embodiments of compounds of the invention across multiple tumor cell lines.

Another series deals with T1, MIF (Homo sapiens, UniProt P14174).
T1 construct: the enzymatic activity of MIF present in cell lysates; endogenous in cells
T1 sequence (P14174 2-115 limits assumed): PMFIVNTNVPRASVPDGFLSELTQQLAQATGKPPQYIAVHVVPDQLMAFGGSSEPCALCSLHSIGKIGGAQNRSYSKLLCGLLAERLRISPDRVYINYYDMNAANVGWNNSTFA
The series can be described thus: MIF cell lysate enzymatic inhibition. The format is biochemical. The conditions noted are these: cell lysates. The procedure:
Normal or transformed cell lysates can be used to determine the concentration inhibiting the enzymatic activity of MIF present in cell lysates. Cells are cultured in the appropriate media to the required number of cells, collected, and lysed. Compounds to be characterized are solubilized in DMSO and serial dilutions are performed in order to obtain a range of concentrations including complete and no quantifiable inhibition.

Series [2] deals with Chick Chorioallantoic Membrane (CAM). The series can be described thus: Chick chorioallantoic membrane (CAM) assay, o ring. It is filed as in vivo. The note with it: for Blood Vessel Density: o ring; for Anti-angiogenic properties: CAM assay, in words. The procedure: 8 groups with 10 embryos in each group were used in the experiment described below. Fresh fertile eggs were incubated for 3 days in a standard egg incubator at 37° C. for 3 days. On Day 3, eggs were cracked under sterile conditions and embryos were placed into 20×100 mm plastic plates and cultivated at 37° C. in an embryo incubator with a water reservoir on the bottom shelf. Air was continuously bubbled into the water reservoir using a small pump so that the humidity in the incubator is kept constant. On Day 6, a sterile silicon “o” ring was placed on each CAM and test compound dissolved in 0.5% methylcellulose was placed into each “o” ring in a sterile hood. Paclitaxel was used as a positive control. Embryos were returned to the incubator after addition of test material. Control embryos received 10 μL of vehicle alone. On Day 8, embryos were removed from the incubator and kept at room temperature while blood vessel density were determined under each “o” ring using an image capturing system at a magnification of 160×. The blood vessel density was measured using an angiogenesis scoring system in that arithmetic numbers 0 to 5 (or exponential numbers 1 to 32) are used to indicate number of blood vessels present at the treatment sites on the CAM. Number 5 represents the highest density and 0 represents no angiogenesis. The percent of inhibition at each dosing site was calculated using the score recorded for that site divided by the mean score obtained from the appropriate control samples for each individual experiment. The percent of inhibition for each dose of a given compound was calculated by pooling all results obtained for that dose from 8-10 embryos.

A short description of series [3]: Pharmacokinetics parameters in rats. It is filed as in vivo. The note with it: rat, plasma; for Vd: intravenous, read-out: Volume of distribution; for clearance: iv, after i.v. administration; for half-life: read-out: Terminal plasma half-life (converted). The procedure:
The pharmacokinetic parameters of several compounds were investigated in rodents. Both oral and iv administration were investigated in rats. Blood samples were collected over time; plasma was analyzed using an LC/MS-MS method. Pharmacokinetic parameters were calculated using Win-NonLin. Terminal plasma half-lives were 7.10 hr for ACT-MIF-001, 1.66 hr for ACT-MIF-002, and 1.50 hr for ACT-MIF-003. […] The volume of distribution values were 72666 mL/kg for ACT-MIF-001, 2118 mL/kg for ACT-MIF-002, and 1926 mL/kg for ACT-MIF-003.

The subject of the next series is pancreatic tumor model. Put plainly: Efficacy study in a pancreatic tumor model. It is filed as in vivo. The conditions noted are these: daily 40 mg/kg IP; for Survival: FIG. 10. The procedure: The activity of the compounds of the invention was investigated in a pancreatic tumor model using an experiment similar to the one described in EXAMPLE 69. Compounds ACT-MIF-002 and ACT-MIF-003 were dosed daily at 40 mg/kg via IP administration.
Lumbar regions of the control and treated groups were excised and sent for histopathological evaluation. […] In the example shown in FIG. 11, bone marrow of the vehicle treated mice is consistent with bone metastases (1) with evidence of surrounding skeletal muscle metastases from invading marrow tumor cells (2 and 3).

Series [4] can be described thus: Caco-2 cell permeability and transport. Further details: Caco-2 Permeability Papp B-A / Caco-2 Permeability Papp A-B: unit not given here. The note with it: human, Caco-2, pH 7.4. The format is in vitro ADME. The protocol:
as §1

On to `COc1ccc(-c2cc(I)ncn2)c(F)c1` [ACT-MIF-002, 4-Iodo-6-(2-fluoro-4-methoxyphenyl)pyrimidine], for which, in the series on Caco-2 monolayers, the “Caco-2 Efflux” value is 1.7 and the “Caco-2 Permeability Class” value was “Low”. Also, the “Caco-2 Permeability Papp A-B” value with Caco-2 monolayers (pH 7.4, 2 hours) is recorded as 0.2. Moreover, in the series on MDR1-MDCK monolayers, the Brain penetration classification result is “Low”, the “P-gp Substrate” value is reported as “No” and the Efflux result was “High”. The “Metabolic Stability in Human Microsomes % Remaining” value in series [1] (0 h) was 100%. In addition, the “Metabolic Stability in Human Microsomes % Remaining” value in [1] (1 h) is listed as below 2%. The fraction unbound in the series “in vitro” is 0.021. In addition, half-maximal inhibition in the series with Du 145 (IC50) required 24.9 µM. The same compound had an IC50 against MIF of 0.07 µM. Besides, the “Blood Vessel Density” value in series [2] (0.3 nM per CAM) was determined as 9.4 ± 2.4. Besides, the “Blood Vessel Density” value in [2] (3 nM per CAM) was found to be 8.6 ± 2.6. Also, the “Blood Vessel Density” value in series [2] (30 nM per CAM) amounted to 4.4 ± 1.3. The Anti-angiogenic properties entry in [2] is given as “high anti-angiogenic properties”. In series [3], the Vd is 2.12 L/kg, the clearance was 7.91 L/h/kg and the half-life was 1.66 h. In the series with pancreatic tumor model, the “Body weight and clinical signs of toxicity” value was “no body weight loss and no clinical signs of toxicity”; the Metastatic tumor burden result is reported as “limited the metastatic tumor burden”; the Survival result is “significant impact on survival”. For the same compound, the “Bone metastases, histopathology of lumbar region” value with pancreatic tumor model (FIG. 11) is on record as “no evidence of bone metastases”.
On to `Fc1ccccc1-c1cc(I)ncn1` [ACT-MIF-003, 4-Iodo-6-(2-fluorophenyl)pyrimidine], for which the efflux ratio at 2 h in series [4] worked out at 1.2. Besides, in the series on Caco-2 monolayers, the “Caco-2 Permeability Class” value was “High”. In addition, the “Caco-2 Permeability Papp A-B” value in the series on Caco-2 monolayers (pH 7.4, 2 hours) amounted to 2.1. Besides, the “Caco-2 Permeability Papp B-A” value in the series on Caco-2 monolayers (basolateral-to-apical, pH 7.4, 2 hours) worked out at 2.6. Besides, in the series on MDR1-MDCK monolayers, the Brain penetration classification entry was “High”, the “P-gp Substrate” value is “No” and the Efflux entry is given as “High”. In series [1] (0 h), the “Metabolic Stability in Human Microsomes % Remaining” value amounted to 100%. Besides, the “Metabolic Stability in Human Microsomes % Remaining” value in [1] (1 h) worked out at 57%. In “in vitro”, this compound showed a fraction unbound of 0.038. Half-maximal inhibition in the series on Du 145 (IC50) required 16.5 µM. Further, the half-inhibitory concentration (IC50) on MIF is 0.2 µM. In addition, the “Blood Vessel Density” value in series [2] (0.3 nM per CAM) worked out at 11.6 ± 1.2. In series [2] (3 nM per CAM), the “Blood Vessel Density” value is 4.2 ± 1.2. The “Blood Vessel Density” value in series [2] (30 nM per CAM) was found to be 4.1 ± 0.7. Also, the Anti-angiogenic properties entry in [2] was “high anti-angiogenic properties”. Further, in series [3], the Vd turned out to be 1.93 L/kg, the clearance was 11.8 L/h/kg and the half-life was 1.5 h. Also, in the series on pancreatic tumor model, the “Body weight and clinical signs of toxicity” value was “no body weight loss and no clinical signs of toxicity”; the Metastatic tumor burden result is reported as “limited the metastatic tumor burden”; the Survival result is “significant impact on survival”.
